Laboratory results published in patent US20160310510A1, “MEDICINAL COSMETIC LIPOATROPHY” (priority 2009, published 2016).
“Also recorded” adds a separate entry of the source.

What was measured:
[1] = test system: small localized fat deposits on the face; assay: Retrospective series of 56 patients treated with local triamcinolone injections: clinical evaluation, satisfaction, side effects
adipocytes = assay: Punch biopsies before and after single treatment, HE histology and morphometry of adipocytes; format: in vivo, human
Protocol: (§1) A series of cases of small localized fat deposits on the face were treated with local triancinolone from March 2005 to October 2008 at a private clinic in Porto Alegre, southern of Brazil. […] They received injections of triamcinolone (Kenalog®-40 Injection) diluted in anesthetic solution (0.02 g/mL Lidocaine plus 0.0004 g/mL Phenilephrine—Novocol®), in different doses and number of applications (up to 3 injections, once a month), according to patient's needs. […] Patients received injections in these fatty areas of the face, through a 0.3 cc BD Ultra Fine II syringe with short needle of minimum 7 or 8 mm long.
Another patient was submitted to 3 mm punch biopsies (one on the submental area and another on suprapubical area) before and after single treatment. Histological specimens of SQ tissue were stained with hematoxylin and eosin (HE stain) and […] was also performed in the histological images of before and after treatment samples.

[2] = test system: SQ adipose tissue of the face; assay: Facial MRI before and after triamcinolone injections, thickness of SQ adipose tissue; format: in vivo, human
Protocol: as §1
One patient was submitted to a facial Magnetic Resonance Imaging (MRI) exam before and after the triamcinolone injections, in order to show the results in terms of the changes in the thickness of subcutaneous tissue. Magnetic resonance imaging examination was performed with 1.5 Tesla Closed Bore Scanner (Magnetom Symphony Maestro Class, Siemens, Erlangen, Germany) with dedicated flexible coils. T1-weighted (600 ms/14 ms, Time Repetition/Time Echo) and T2-weighted (2500 ms/45 ms, TR/TE) turbo spin echo sequences were performed in coronal, axial and sagittal planes, with emphasis on the sagittal plane. An experienced radiologist evaluated the MRI images. The thickness of SQ adipose tissue was measured with Syngo software (Siemens, Erlangen, Germany) in millimetres (mm).

[3] = cited from earlier work

## CC1(C)O[C@@H]2C[C@H]3[C@@H]4CCC5=CC(=O)C=C[C@]5(C)[C@@]4(F)[C@@H](O)C[C@]3(C)[C@]2(C(=O)CO)O1 [triamcinolone, Triamcinolone acetonide]
[1]; 29 subjects (51.78%) who returned for evaluation
  subject satisfaction with the results of the procedure: very satisfied
[1]; 29 subjects who returned for evaluation
  physician evaluation of clinical and cosmetic improvement: good clinical and cosmetic improvement of facial contour
[1]; Kenalog-40 diluted in lidocaine plus phenilephrine, up to 3 monthly subcutaneous injection sessions
  serious / severe adverse events: No severe local or systemic side effects were observed; also recorded: did not presented serious adverse events
[1]; during and after the injections
  local side effects observed: pain and slight erythema; also recorded: hematomas in variable number and size
[1]; of the treated series
  number of patients with cosmetic local side effects: three
adipocytes; before and after single treatment biopsies
  reduction in the volume of adipocytes in the sites of the injections (histological analysis): about 30%
adipocytes; suprapubical area biopsy, one month after a single injection, before treatment 4
  average number of adipocytes observed in the optical field at the same magnification: 7 adipocytes per field
adipocytes; suprapubical area biopsy, one month after a single injection, before treatment 190
  average diameter of the adipocytes: 153 pixels
adipocytes; suprapubical area biopsy, one month after a single injection, before treatment 31661
  average area of the adipocytes: 21705 pixels
[2]; after single session of injections, FIGS. 3 and 4
  reduction of the thickness of the study area of facial fat (MRI): 27.3%
[2]; after single session, before treatment 1.1 cm
  thickness of the study area of facial fat after treatment (MRI): 0.8 cm
[2]; mandibular area
  reduction of the fat thickness showed by MRI: 37.5%
[2]; mandibular area, before treatment 0.8 cm
  fat thickness after treatment (MRI): 0.5 cm
[2]; submental area
  reduction of the fat thickness showed by MRI: 33.3%
[2]; submental area, before treatment 0.6 cm
  fat thickness after treatment (MRI): 0.4 cm
[3]; intralesional injections, Pariser and Murray 1963
  concentration with greater risk of cutaneous atrophy: above 5 mg/cm^3
[3]; local injections
  safe dose: less than 0.15 mg/kg
